# Experimental data: patent US20160000851A1, “Bioactive Botanical Compositions and Uses Thereof” (AKZO NOBEL CHEMICALS INTERNATIONAL B.V., priority 2013, published 2016)
# Assays:
# Format in all cases: cell-based
# [1] = tested on: IL-8; assay: Inhibition of basal level non-induced IL-8 release in human epidermal keratinocytes; settings: HEK, 16 hours
# Protocol: (§1) The protocols for the growth and treatment of human primary epidermal keratinocyte (HEK) cultures are as follows. HEK and all cell culture supplies were obtained from Life Technologies Co. (Carlsbad, Calif.). The cells were maintained in keratinocyte growth medium (KGM), which contains keratinocyte basal medium 154 (M154) and human keratinocyte growth supplements (HKGS). They were grown at 37° C. in an atmosphere of 5% (v/v) CO2 and used between passages from 2 to 4. For the treatment, keratinocytes were trypsinized by Trypsin 0.025%/EDTA 0.01% in Phosphate Buffered Saline, seeded in 96-well plates, and grown in KGM to about 80% confluence. The cells were then exposed to SDS (Sigma-Aldrich Co., St. Louis, Mo.) at various concentrations for about 16 hours. After incubation, the supernatants were collected, and IL-1α and IL-8 were quantified using Quantikine® ELISA (R&D Systems, Minneapolis, Minn.). Results were presented as the mean±standard deviation. IC50 was calculated using sigmoidal curve fitting with SigmaPlot Version 10.0 (Systat Software). LDH (lactate dehydrogenase) assay (G-Biosciences, St. Louis, Mo.) was performed on all the supernatants to assess cytotoxicity.
# The protocols for the growth of HEK are described under Example 1.
# [2] = tested on: human epidermal keratinocytes (HEK); assay: Mildness ranking of surfactants by LDH cytotoxicity and IL-1α release in HEK; settings: based on LDH cytotoxicity and IL-1α induction in HEK
# Protocol: as §1, with “cytotoxicity. […]” for “cytotoxicity.”
# [3] = tested on: IL-8; assay: Surfactant induction of IL-8 release in human epidermal keratinocytes; settings: HEK, 16 hours, SDS at 6 μg/ml
# Protocol: as §1
# (§2) The protocols for the growth of HEK are described under Example 1. Instead of SDS, the keratinocytes were exposed to a range of concentrations of ethoxylated alcohol for about 16 hours.
# [4] = tested on: IL-1α; assay: Surfactant induction of IL-1α release in human epidermal keratinocytes; settings: HEK, 16 hours, SDS at 25 μg/ml
# Protocol: as §1, §2
# [5] = tested on: IL-1α; assay: Inhibition of SDS-induced IL-1α release in human epidermal keratinocytes (ELISA); settings: Keratinocyte, HEK, SDS 25 μg/ml, 16 hours, read-out: Estimated IC50 for inhibition of SDS-induced IL-1α release
# [6] = tested on: IL-1α; assay: Inhibition of ethoxylated alcohol-induced IL-1α release in human epidermal keratinocytes (ELISA); settings: HEK, ethoxylated alcohol 1000 μg/ml, 16 hours
# Protocol: Treatment was conducted by incubation of HEK with ethoxylated alcohol (1000 μg/ml for induction of IL-1α as determined in Example 3) for 16 hours in presence of a range of concentrations of Recentia® CS, or Aspirin.
# Treatment was conducted by incubation of HEK with ethoxylated alcohol (500 μg/ml for induction of IL-1α, as determined in Example 3) for 16 hours in presence of a range of concentrations of Recentia® CS, or conventional green tea preparation or conventional black tea preparation.
# [7] = tested on: IL-8; assay: Inhibition of SDS-induced IL-8 release in human epidermal keratinocytes (ELISA); settings: HEK, SDS 6 μg/ml, 16 hours
# Protocol: The protocols for the growth and treatment of human primary epidermal keratinocyte (HEK) cultures are as follows. HEK and all cell culture supplies were obtained from Life Technologies Co. (Carlsbad, Calif.). The cells were maintained in keratinocyte growth medium (KGM), which contains keratinocyte basal medium 154 (M154) and human keratinocyte growth supplements (HKGS). They were grown at 37° C. in an atmosphere of 5% (v/v) CO2 and used between passages from 2 to 4. For the treatment, keratinocytes were trypsinized by Trypsin 0.025%/EDTA 0.01% in Phosphate Buffered Saline, seeded in 96-well plates, and grown in KGM to about 80% confluence. The cells were then exposed to SDS (Sigma-Aldrich Co., St. Louis, Mo.) at various concentrations for about 16 hours. After incubation, the supernatants were collected, and IL-1α and IL-8 were quantified using Quantikine® ELISA (R&D Systems, Minneapolis, Minn.). […] IC50 was calculated using sigmoidal curve fitting with SigmaPlot Version 10.0 (Systat Software). […]
# Treatment was conducted by incubation of HEK with SDS (25 μg/ml for induction of IL-1α or 6 μg/ml for induction of IL-8 as determined in Example 1) for 16 hours in presence of a range of concentrations of Recentia® CS, or conventional green tea preparation, or conventional black tea preparation.
compound,measurement,setting,value
C[S+]([O-])c1ccc(-c2nc(-c3ccncc3)c(-c3ccc(F)cc3)[nH]2)cc1 (stereo not shown) [SB203580],Inhibition of basal level non-induced IL-8 release (in words),[1],inhibited SDS-induced IL-8 only
"CCCCCCCCCCCCOS(=O)(=O)[O-].[Na+] [SDS, Sodium Dodecyl Sulfate]",Mildness/harshness rank among six tested surfactants,[2],close to the harshest surfactant
same,Induction of IL-8 release by surfactant,[3],significant (p<0.001) induction of IL-8
same,Induction of IL-1α release by surfactant,[4],significant (p<0.001) induction of IL-1α
CC(=O)Oc1ccccc1C(=O)O [Aspirin],IC50,[5],~230 µg/mL
same,Inhibition of ethoxylated alcohol-induced IL-1α release (in words),[6],failed to inhibit IL-1α release induced by the ethoxylated alcohol
same,Inhibition of SDS-induced IL-8 release (in words),[7],did not inhibit SDS-induced release of inflammatory chemokine IL-8
